Source: PMC9227536, “Prediction of Pharmacokinetics of IDP-73152 in Humans Using Physiologically-Based Pharmacokinetics” (Pharmaceutics, 2022)

Assays:
[1] = system: penicillin-resistant Streptococcus pneumonia; conditions: infected mice, twice-a-day dosing; cited from earlier work
[2] = Metabolic stability in liver microsomes, mouse; assay type: in vitro ADME
Experimental: In this study, the metabolic stability of IDP-73152 in microsomes from mice, rats, dogs, and humans, as well as rat hepatocytes, was determined. For a microsomal incubation study, the incubation mixtures, containing mouse, rat, dog, or human liver microsomes at a protein concentration of 0.5 mg/mL, 3.3 mM MgCl2, and 1.3 mM NADPH, in a 100 mM potassium phosphate buffer (pH 7.4), were preincubated for 3 min at 37 °C. In parallel, a control incubation mixture (i.e., identical composition to that of the incubation mixture without NADPH) was also prepared for comparison. The reaction was initiated by the addition of a 10 × solution of IDP-73152 (final concentration in mixtures of 1 μM) to the incubation mixtures or the control incubation mixtures. The mixtures were incubated in a shaking water bath (37 °C, 90 rpm). Aliquots (30 μL) were collected at 0, 15, 30, and 45 min from the mixture and the reaction was terminated by the addition of a 4-fold volume of ice-cold acetonitrile to the sample. The mixture was then vortexed for 5 min and centrifuged for 10 min at 10,000× g. The supernatant was collected and stored at -80 °C until the analysis. For the hepatocyte incubation study, rat hepatocytes were freshly prepared using the two-step collagenase perfusion method with slight modifications. After the isolation, cell viability during the preparation process was first determined by a trypan blue exclusion assay prior to the stability study. The preparation was considered adequate for subsequent studies if the viability was greater than 80%. When appropriate, the hepatocytes were resuspended in Williams' media E containing 10% fetal bovine serum, 1% penicillin-streptomycin, and 0.01% insulin-transferrin-selenium (i.e., 10 mg/mL insulin, 5.5 mg/mL transferrin, and 5 mg/mL selenium) at pH 7.4. The reaction was carried out with the hepatocyte suspension prepared at 1 × 10^6 cells/mL (0.5 mL) and initiated by the addition of equal volume of IDP-73152 solution (i.e., final concentration of the compound at 1 μM in 0.5 × 10^6 cells/mL of hepatocytes) to the hepatocyte suspension. […] Assuming first-order disappearance kinetics, the slope k of the logarithmically transformed IDP-73152 concentration in the sample versus time plot was determined by the linear regression analysis of the data. The total intrinsic clearance (CLint,mic, μL/min/mg protein for microsomal incubation study and CLint,hep, μL/min/million cells for hepatocytes incubation study) was then calculated using the following equations:(4) CLint, mic=k×Volume of incubation medium (μL)/Protein in incubation medium (mg) (5) CLint,hep=k×Volume of incubation (μL)/Number of cells in incubation (×10^6) The unbound intrinsic clearance, with respect to the whole liver ([…]), was then estimated for the two cases. […]

Stability in plasma, dog = assay type: in vitro ADME; conditions: dogs plasma
Experimental: The unbound fractions of IDP-73152 in various matrices were measured according to the manufacturer's instructions for the rapid equilibrium dialysis (RED) device (ThermoFisher Scientific, Waltham, MA, USA). Briefly, IDP-73152 was added to the plasma or the microsomal/hepatocyte incubation buffer from various species (i.e., mouse, rat, dog, and human for microsomal incubation; rat for hepatocyte incubation) to obtain final concentrations of the compound at 0.3, 1, and 3 μM. After the membrane insert was placed in the RED plate, the solution containing IDP-73152 was added (400 μL) to the sample chamber, and the dialysis buffer (600 μL) was added to the buffer chamber. The RED plate was sealed with parafilm and then incubated at 37 °C in the orbital shaker (Lab Companion, Daejeon, Korea) at 100 rpm for 5 h. […] The IDP-73152 concentration in the buffer/sample chambers (i.e., CBuffer Chamber and CSample Chamber) was determined by an assay. Thus, the fraction unbound was defined as:(2) % Fraction unbound=(CBuffer Chamber/CSample Chamber)×100% When necessary, the stability of IDP-73152 in the matrix was also determined at 5 h. […] Accordingly, the kinetics of IDP-73152 instability were determined in the rat blood at a final concentration of 0.3 μM. […]

CC(C)(C)[C@H](NC(=O)[C@H](CC1CCCC1)CN(O)C=O)C(=O)N1CCC(NCc2cc(F)c(F)cc2F)CC1 [IDP-73152]
ED50 (oral dose at which the survival rate was 50%) [1]: 3.0 mg/kg
hepatic ER (extraction ratio) ([2]; mice, from microsomal clearance, well-stirred model): 0.102 ± 0.002
CLu,int,H ([2]; mice, scaled up to the whole liver from microsomes): 0.539 ± 0.011 L/h
CLhep predicted at 1 μM ([2]; mouse, liver microsomes, pH 7.4, mice, read-out: CLh calculated from the CLint,mic (converted)): 22.7 mL/min/kg
microsomal CLint at 1 μM ([2]; mouse, pH 7.4, mice liver microsomes 0.5 mg/mL, 1 μM, read-out: CLint,mic): 80.1 ± 1.7 µL/min/mg
percentage remaining in plasma at 5 h (Stability in plasma, dog; 5 h, 37 °C): 101 ± 6%
stability in plasma (Stability in plasma, dog; preliminary study): stable
